Experimental data as given in patent US8629159B2, “Thiazolidinedione analogues” (Metabolic Solutions Development Company, LLC, priority 2006, dated 2014).
Marks after values point to notes of the source that are not given here.

What was measured:
[1] = system: Male salt-sensitive Dahl rats; test: Fasting free fatty acids (FFA) and adiponectin in treated Dahl rats; type: in vivo, rat; conditions: 3 weeks treatment; 40 mg/kg compound 1, 20 mg/kg rosiglitazone
Experimental: Doses of these compounds were chosen to produce the same metabolic effects in terms of reduction of triglycerides and elevation of adiponectin (Table E). Direct blood pressure (systolic and diastolic) and heart rate was also measured by telemetry (Tables F—H and FIG. 4).

[2] = system: Male salt-sensitive Dahl rats; test: Blood pressure (systolic and diastolic) and heart rate by telemetry in hypertensive Dahl rats; type: in vivo, rat; conditions: 24 hour average
Experimental: Direct blood pressure (systolic and diastolic) and heart rate was also measured by telemetry (Tables F—H and FIG. 4). Data in Tables F—H and depicted in FIGS. 4A-4C are 24 hour averages for the last 4 days before the start of the daily oral gavage of treatments (−4, −3, −2, −1) and for the days 1-17 during the treatments shown.

[3] = day 1 of treatment, rosiglitazone 20 mg/kg, compound 1 40 mg/kg
[4] = day 2 of treatment, rosiglitazone 20 mg/kg, compound 1 40 mg/kg
[5] = day 3 of treatment, rosiglitazone 20 mg/kg, compound 1 40 mg/kg
[6] = day 4 of treatment, rosiglitazone 20 mg/kg, compound 1 40 mg/kg
[7] = day 5 of treatment, rosiglitazone 20 mg/kg, compound 1 40 mg/kg
[8] = day 6 of treatment, rosiglitazone 20 mg/kg, compound 1 40 mg/kg
[9] = day 7 of treatment, rosiglitazone 20 mg/kg, compound 1 40 mg/kg
[10] = day 8 of treatment, rosiglitazone 20 mg/kg, compound 1 40 mg/kg
[11] = day 9 of treatment, rosiglitazone 20 mg/kg, compound 1 40 mg/kg
[12] = day 10 of treatment, rosiglitazone 20 mg/kg, compound 1 40 mg/kg
[13] = day 11 of treatment, rosiglitazone 20 mg/kg, compound 1 40 mg/kg
[14] = day 12 of treatment, rosiglitazone 20 mg/kg, compound 1 40 mg/kg
[15] = day 13 of treatment, rosiglitazone 20 mg/kg, compound 1 40 mg/kg
[16] = day 14 of treatment, rosiglitazone 20 mg/kg, compound 1 40 mg/kg
[17] = day 15 of treatment, rosiglitazone 20 mg/kg, compound 1 40 mg/kg
[18] = day 16 of treatment, rosiglitazone 20 mg/kg, compound 1 40 mg/kg
[19] = day 17 of treatment, rosiglitazone 20 mg/kg, compound 1 40 mg/kg
[20] = day −1, before start of treatment
[21] = day −2, before start of treatment
[22] = day −3, before start of treatment
[23] = day −4, before start of treatment

CN(CCOc1ccc(CC2SC(=O)NC2=O)cc1)c1ccccn1 (centres unmarked) [Rosiglitazone, reference compound]
Adiponectin [1]: 36*
FFA [1]: 0.77*
Diastolic blood pressure measured by telemetry, Mean [2, 3]: 119
Heart rate measured by telemetry, Mean [2, 3]: 407 bpm
Diastolic blood pressure measured by telemetry, Mean [2, 4]: 121
Heart rate measured by telemetry, Mean [2, 4]: 402 bpm
Systolic blood pressure measured by telemetry, Mean [2, 4]: 172
Diastolic blood pressure measured by telemetry, Mean [2, 5]: 123
Heart rate measured by telemetry, Mean [2, 5]: 405 bpm
Systolic blood pressure measured by telemetry, Mean [2, 5]: 175
Diastolic blood pressure measured by telemetry, Mean [2, 6]: 124
Heart rate measured by telemetry, Mean [2, 6]: 399 bpm
Systolic blood pressure measured by telemetry, Mean [2, 6]: 177
Diastolic blood pressure measured by telemetry, Mean [2, 7]: 126
Heart rate measured by telemetry, Mean [2, 7]: 398 bpm
Systolic blood pressure measured by telemetry, Mean [2, 7]: 179
Diastolic blood pressure measured by telemetry, Mean [2, 8]: 126
Heart rate measured by telemetry, Mean [2, 8]: 398 bpm
Systolic blood pressure measured by telemetry, Mean [2, 8]: 179
Diastolic blood pressure measured by telemetry, Mean [2, 9]: 131
Heart rate measured by telemetry, Mean [2, 9]: 393 bpm
Systolic blood pressure measured by telemetry, Mean [2, 9]: 184
Diastolic blood pressure measured by telemetry, Mean [2, 10]: 135
Heart rate measured by telemetry, Mean [2, 10]: 401 bpm
Systolic blood pressure measured by telemetry, Mean [2, 10]: 188
Diastolic blood pressure measured by telemetry, Mean [2, 11]: 136
Heart rate measured by telemetry, Mean [2, 11]: 398 bpm
Systolic blood pressure measured by telemetry, Mean [2, 11]: 190
Heart rate measured by telemetry, Mean [2, 12]: 398 bpm
Systolic blood pressure measured by telemetry, Mean [2, 12]: 192
Heart rate measured by telemetry, Mean [2, 13]: 399 bpm
Systolic blood pressure measured by telemetry, Mean [2, 13]: 194
Heart rate measured by telemetry, Mean [2, 14]: 399 bpm
Systolic blood pressure measured by telemetry, Mean [2, 14]: 196
Heart rate measured by telemetry, Mean [2, 15]: 395 bpm
Systolic blood pressure measured by telemetry, Mean [2, 15]: 196
Heart rate measured by telemetry, Mean [2, 16]: 393 bpm
Systolic blood pressure measured by telemetry, Mean [2, 16]: 198
Heart rate measured by telemetry, Mean [2, 17]: 398 bpm
Systolic blood pressure measured by telemetry, Mean [2, 17]: 202
Heart rate measured by telemetry, Mean [2, 18]: 401 bpm
Systolic blood pressure measured by telemetry, Mean [2, 18]: 204
Heart rate measured by telemetry, Mean [2, 19]: 402 bpm
Systolic blood pressure measured by telemetry, Mean [2, 19]: 204
Diastolic blood pressure measured by telemetry, Mean [2, 20]: 124
Heart rate measured by telemetry, Mean [2, 20]: 395 bpm
Systolic blood pressure measured by telemetry, Mean [2, 20]: 173
Diastolic blood pressure measured by telemetry, Mean [2, 21]: 127
Heart rate measured by telemetry, Mean [2, 21]: 394 bpm
Systolic blood pressure measured by telemetry, Mean [2, 21]: 176
Diastolic blood pressure measured by telemetry, Mean [2, 22]: 124
Heart rate measured by telemetry, Mean [2, 22]: 400 bpm
Systolic blood pressure measured by telemetry, Mean [2, 22]: 171
Diastolic blood pressure measured by telemetry, Mean [2, 23]: 124
Heart rate measured by telemetry, Mean [2, 23]: 403 bpm
Systolic blood pressure measured by telemetry, Mean [2, 23]: 174
